Measurements published in patent publication US10065954B2, “Substituted imidazo[4,5-c]pyridines as SSAO inhibitors” (Proximagen Limited, priority 2014, dated 2018).

Legend:
[1] = biological target: T1, purified recombinantly expressed human SSAO (Homo sapiens, UniProt Q16853); assay: SSAO enzyme inhibition assay (benzylamine substrate; hydrogen peroxide/HRP-coupled or 14C-aldehyde detection); assay type: biochemical; details: SSAO inhibitory activity; recombinant human SSAO, RT
T1 construct: made in house
T1 sequence (Q16853 1-763): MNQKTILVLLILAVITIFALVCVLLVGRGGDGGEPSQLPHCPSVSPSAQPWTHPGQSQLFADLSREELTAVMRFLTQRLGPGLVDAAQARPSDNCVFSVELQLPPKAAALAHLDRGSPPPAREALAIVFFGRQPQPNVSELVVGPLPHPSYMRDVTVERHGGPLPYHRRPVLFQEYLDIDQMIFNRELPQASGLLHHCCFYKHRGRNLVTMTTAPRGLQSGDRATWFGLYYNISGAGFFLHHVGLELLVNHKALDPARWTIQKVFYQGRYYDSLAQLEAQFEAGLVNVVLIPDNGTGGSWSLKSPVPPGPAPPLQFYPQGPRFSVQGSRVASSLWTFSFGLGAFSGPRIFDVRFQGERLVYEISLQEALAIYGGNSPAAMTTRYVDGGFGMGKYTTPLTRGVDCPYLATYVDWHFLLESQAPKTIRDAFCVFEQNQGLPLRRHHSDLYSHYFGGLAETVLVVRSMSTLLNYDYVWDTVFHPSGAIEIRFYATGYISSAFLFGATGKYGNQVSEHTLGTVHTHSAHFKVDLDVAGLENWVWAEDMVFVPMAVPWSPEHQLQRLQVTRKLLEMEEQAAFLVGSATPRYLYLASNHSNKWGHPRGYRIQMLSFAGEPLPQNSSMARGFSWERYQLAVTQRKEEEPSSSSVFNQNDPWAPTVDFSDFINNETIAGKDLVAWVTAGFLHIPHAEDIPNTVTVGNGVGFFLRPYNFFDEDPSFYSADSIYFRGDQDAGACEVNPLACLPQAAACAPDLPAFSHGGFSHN
Experimental: All primary assays were performed at RT. with purified recombinantly expressed human SSAO. Enzyme was prepared essentially as described in Öhman et al. (Protein Expression and Purification 46 (2006) 321-331). In addition, secondary- and selectivity assays were performed using SSAO prepared from various tissues or purified rat recombinant SSAO. The enzyme activity was assayed with benzylamine as substrate by measuring either benzaldehyde production, using ^14C-labeled substrate, or by utilizing the production of hydrogen peroxide in a horseradish peroxidase (HRP) coupled reaction. Briefly, test compounds were dissolved in dimethyl sulfoxide (DMSO) to a concentration of 10 mM. Dose-response measurements were assayed by either creating 1:10 serial dilutions in DMSO to produce a 7 point curve or by making 1:3 serial dilutions in DMSO to produce 11 point curves. The top concentrations were adjusted depending on the potency of the compounds and subsequent dilution in reaction buffer yielded a final DMSO concentration ≤2%.
In a horseradish peroxidase (HRP) coupled reaction, hydrogen peroxide oxidation of 10-acetyl-3,7-dihydroxyphenoxazine produced resorufin, which is a highly fluorescent compound (Zhout and Panchuk-Voloshina. Analytical Biochemistry 253 (1997) 169-174; Amplex® Red Hydrogen Peroxide/peroxidase Assay kit, Invitrogen A22188). Enzyme and compounds in 50 mM sodium phosphate, pH 7.4 were set to pre-incubate in flat-bottomed microtiter plates for approximately 15 min before initiating the reaction by addition of a mixture of HRP, benzylamine and Amplex reagent. Benzylamine concentration was fixed at a concentration corresponding to the Michaelis constant, determined using standard procedures. Fluorescence intensity was then measured at several time points during 1-2 h, exciting at 544 nm and reading the emission at 590 nm. For the human SSAO assay final concentrations of the reagents in the assay wells were: SSAO enzyme 1 ug/mL, benzylamine 100 uM, Amplex reagent 20 uM, HRP 0.1 U/mL and varying concentrations of test compound. The inhibition was measured as % decrease of the signal compared to a control without inhibitor (only diluted DMSO). The background signal from a sample containing no SSAO enzyme was subtracted from all data points. Data was fitted to a four parameter logistic model and IC50 values were calculated using the GraphPad Prism 4 or XLfit 4 programs.
SSAO activity was assayed using […] benzylamine and analysed by measuring radioactive benzaldehyde. In a white 96-well optiplate (Packard), 20 uL of diluted test compound was pre-incubated at RT with 20 uL SSAO enzyme for approximately 15 min with continuous agitation. All dilutions were made with PBS. The reaction was initiated by adding 20 uL of the benzylamine substrate solution containing Benzylamine hydrochloride (CFA589, GE Healthcare). The plate was incubated for 1 h as above after which the reaction was stopped by acidification (10 uL 1M aq HCl). Then 90 uL Micro Scint-E solution (Perkin-Elmer) was added to each well and the plate was continuously mixed for 15 min. Phase separation occurred instantly and activity was read in a Topcount scintillation counter (Perkin-Elmer). In the final reaction well, the human recombinant SSAO concentration was 10 ug/mL. In order to optimize sensitivity, the substrate concentration was decreased as compared to the HRP coupled assay in order to get a higher fraction of radioactive product. In the human SSAO assay, benzylamine concentration was 40 uM (0.2uCi/mL). Data was analysed as above.

[2] = biological target: T2, human ether a go-go related gene (hERG) K+ channel (Homo sapiens, UniProt Q12809); assay: hERG assay, IonWorks patch clamp electrophysiology; assay type: cell-based; details: Chinese Hamster Lung cell line stably expressing hERG; max assay concentration 11 uM
T2 construct: Chinese Hamster Lung cell line stably expressing the full length hERG channel; expressed in transfected cells; host or cells: Chinese Hamster Lung cell line
T2 sequence (Q12809 whole entry): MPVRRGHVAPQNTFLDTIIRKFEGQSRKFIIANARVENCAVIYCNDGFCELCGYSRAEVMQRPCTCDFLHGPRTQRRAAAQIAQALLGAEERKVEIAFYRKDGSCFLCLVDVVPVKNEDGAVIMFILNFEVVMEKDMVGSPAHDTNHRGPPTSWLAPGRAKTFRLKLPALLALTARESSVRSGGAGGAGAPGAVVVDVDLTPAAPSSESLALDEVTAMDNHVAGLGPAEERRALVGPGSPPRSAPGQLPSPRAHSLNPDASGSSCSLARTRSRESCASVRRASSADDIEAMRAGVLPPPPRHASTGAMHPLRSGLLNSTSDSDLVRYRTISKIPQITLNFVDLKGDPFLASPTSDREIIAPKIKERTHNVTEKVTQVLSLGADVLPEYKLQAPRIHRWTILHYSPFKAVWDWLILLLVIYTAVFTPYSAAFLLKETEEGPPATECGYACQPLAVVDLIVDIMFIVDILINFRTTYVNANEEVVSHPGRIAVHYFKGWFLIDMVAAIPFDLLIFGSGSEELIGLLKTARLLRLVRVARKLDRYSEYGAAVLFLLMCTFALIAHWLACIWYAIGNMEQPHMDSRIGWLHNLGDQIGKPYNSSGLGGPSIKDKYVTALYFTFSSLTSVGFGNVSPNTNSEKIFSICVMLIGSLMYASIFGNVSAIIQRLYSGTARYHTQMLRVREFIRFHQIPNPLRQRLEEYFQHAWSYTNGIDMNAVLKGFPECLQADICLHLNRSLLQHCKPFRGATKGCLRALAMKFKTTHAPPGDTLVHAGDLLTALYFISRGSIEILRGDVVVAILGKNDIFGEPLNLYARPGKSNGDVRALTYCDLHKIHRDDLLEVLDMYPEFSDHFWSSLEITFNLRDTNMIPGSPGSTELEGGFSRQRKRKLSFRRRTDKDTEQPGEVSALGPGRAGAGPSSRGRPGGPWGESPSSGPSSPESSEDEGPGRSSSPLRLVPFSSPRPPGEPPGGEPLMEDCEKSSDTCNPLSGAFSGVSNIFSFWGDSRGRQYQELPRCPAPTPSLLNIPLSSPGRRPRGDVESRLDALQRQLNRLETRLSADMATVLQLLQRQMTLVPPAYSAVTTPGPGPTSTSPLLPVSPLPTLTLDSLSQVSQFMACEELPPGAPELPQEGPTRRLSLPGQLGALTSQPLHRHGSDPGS
Experimental: Compounds of the invention were tested for inhibition of the human ether a go-go related gene (hERG) K^+ channel using IonWorks patch clamp electrophysiology. 8 Point concentration-response curves were generated on two occasions using 3-fold serial dilutions from the maximum assay concentration (11 uM). Electrophysiological recordings were made from a Chinese Hamster Lung cell line stably expressing the full length hERG channel. Single cell ion currents were measured in the perforated patch clamp configuration (100 ug/mL amphoterocin) at RT using an IonWorks Quattro instrument. The internal solution contained 140 mM KCl, 1 mM MgCl2, 1 mM EGTA and 20 mM HEPES and was buffered to pH 7.3. The external solution contained 138 mM NaCl, 2.7 mM KCl, 0.9 mM CaCl2, 0.5 mM MgCl2, 8 mM Na2HPO4 and 1.5 mM KH2PO4, and was buffered to pH 7.3. Cells were clamped at a holding potential of […] for 30 s and then stepped to +40 mV for 1 s. This was followed by a hyperpolarising step of 1 s to […] to evoke the hERG tail current. This sequence was repeated 5 times at a frequency of 0.25 Hz. Currents were measured from the tail step at the 5th pulse, and referenced to the holding current. Compounds were incubated for 6-7 min prior to a second measurement of the hERG signal using an identical pulse train. A minimum of 17 cells were required for each pIC50 curve fit. A control compound (quinidine) was used (see Table 13 below).

IC50 [1]: < 0.05 µM
SMILES: Cc1ccc(-n2c(-c3ccc(NCCN4CCOCC4)nc3)nc3ccncc32)cc1 [Compound 21, 5-[3-(4-Methylphenyl)-3H-imidazo[4,5-c]pyridin-2-yl]-N-[2-(morpholin-4-yl)ethyl]pyridin-2-amine]
IC50 [2]: > 10 µM
